Legend:
Hep 3B = settings: based on the prior published result; read-out: IC50 against Hep 3B; cited from earlier work
MCF-7 = experiment: MTT cell viability assay, MCF-7; assay type: cell-based; settings: MCF7, 48 hours, human breast cancer MCF-7, average of at least six independent experiments
Method: (§1) Human hepatoma (HepG2 and Hep 3B) and human breast cancer (MCF-7) cell lines were obtained from American Type Culture Collection (Rockville, Md., USA). HepG2 and Hep 3B cells were cultured in MEM alpha medium (Invitrogen/Gibco BRL, Grand Island, N.Y., USA) and MCF-7 cells were cultured in DMEM medium (Invitrogen/Gibco BRL). All cells were cultured at 37° C. in 5% CO2 in culture media supplemented with 10% fetal bovine serum (Invitrogen/Gibco BRL) and 100 U/ml streptomycin and penicillin (Invitrogen/Gibco BRL). For treatment, cells were seeded in six-well plates at 6.25×10^5 cells/well. On the following day, the media were changed to serum-free and the cells were serum-starved for 24 h. […]
(§2) The MTT (3-(4, 5-dimethylthiazol-2-yl)-2,5-diphenyl tetrazolium bromide) cell viability assay is a colorimetric assay system, which measures the reduction of a tetrazolium component (MTT) into an insoluble blue/purple colored formazan product by succinate tetrazolium reductase in mitochondria of viable cells. The absorbance of the complex is read spectrophotometrically and is directly proportional to the number of live or viable cells. […]
(§3) To each of the 96 well plates seeded at a density of 5,000 cells per well, a known concentration of test compounds were added individually. […] The IC50 value was determined by a nonlinear curve fitting program using the GraphPad prism software v 4.01.

HepG2 = experiment: MTT cell viability assay, HepG2; assay type: cell-based; settings: 48 hours, human hepatoma HepG2, average of at least six independent experiments
Method: as §1, §2, §3

Hep3B = experiment: MTT cell viability assay, Hep3B; assay type: cell-based; settings: 48 hours, human hepatoma Hep3B, average of at least six independent experiments
Method: as §1, §2, §3

## COC1=C(OC)C(O)C(CC=C(C)CCC=C(C)CCC=C(C)C)C(C)C1=O (stereo not shown) [4-hydroxy-2,3-dimethoxy-6-methyl-5-(3,7,11-trimethyldodeca-2,6,10-trienyl)cyclohex-2-enone]
Hep 3B
  IC50: > 30000 nM

## CC(C)=CCC/C(C)=C/CC/C(C)=C/Cc1c(O)ccc(O)c1C [Compound 1]
MCF-7
  IC50: 519 nM
HepG2
  IC50: 948 nM
Hep3B
  IC50: 325 nM

## CC(C)=CCC/C(C)=C/CC/C(C)=C/CC1C(O)C=CC(=O)C1C (stereo not shown) [Compound 3]
MCF-7
  IC50: 108 nM
HepG2
  IC50: 156 nM
Hep3B
  IC50: 4.3 nM

Reference: patent US20160237012A1, “ANTICANCER AGENTS AND PROCESS OF MAKING THEREOF” (Golden Biotechnology Corporation, priority 2015, published 2016)
